Assay results reported in the supplement of paper PMC10307832.

Experiments:
Assay in all cases: relative viability (nuclei count vs DMSO), 5 days (fraction); higher = more cells survive
ABC-1 = tested on: ABC-1
How it was run: (§1)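 Relative viability divides the nuclei count in treated wells by that in vehicle wells. Lung cancer cell lines were seeded in 1536-well plates, dosed by pin tool the next day, and fixed and stained after 5 days in one step with final 0.05% Triton X-100, 1% formaldehyde and 1 ug/ml Hoechst. Dosing was a single drug or a fixed anchor-drug dose plus five library-drug doses (not always all listed) in √10 steps, and values are medians of duplicate plates imaged at 4×.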

CAL-12T = tested on: CAL-12T
How it was run: as §1

COR-L 105 = tested on: COR-L 105
How it was run: as §1

ChaGo-K-1 = tested on: ChaGo-K-1
How it was run: as §1

EMC-BAC-2 = tested on: EMC-BAC-2
How it was run: as §1

EPLC-272H = tested on: EPLC-272H
How it was run: as §1

HCC-15 = tested on: HCC-15
How it was run: as §1

HCC-78 = tested on: HCC-78
How it was run: as §1

HOP-62 = tested on: HOP-62
How it was run: as §1

LXF-289 = tested on: LXF-289
How it was run: as §1

NCI-H1666 = tested on: NCI-H1666
How it was run: as §1

NCI-H1755 = tested on: NCI-H1755
How it was run: as §1

NCI-H1915 = tested on: NCI-H1915
How it was run: as §1

NCI-H1975 = tested on: NCI-H1975
How it was run: as §1

NCI-H1993 = tested on: NCI-H1993
How it was run: as §1

NCI-H2023 = tested on: NCI-H2023
How it was run: as §1

NCI-H2085 = tested on: NCI-H2085
How it was run: as §1

NCI-H2126 = tested on: NCI-H2126
How it was run: as §1

NCI-H3122 = tested on: NCI-H3122
How it was run: as §1

NCI-H322M = tested on: NCI-H322M
How it was run: as §1

NCI-H358 = tested on: NCI-H358
How it was run: as §1

NCI-H441 = tested on: NCI-H441
How it was run: as §1

NCI-H522 = tested on: NCI-H522
How it was run: as §1

UMC-11 = tested on: UMC-11
How it was run: as §1

CC(C)Oc1cc(Nc2nc(N[C@@H](C)c3ccc(F)cn3)ncc2Cl)n[nH]1 [AZ23] + CC(=O)c1c(C)c2cnc(Nc3ccc(N4CCNCC4)cn3)nc2n(C2CCCC2)c1=O [Palbociclib] (partner 0.5 µM) showed a relative viability (ABC-1; first compound 0.01 µM) of 0.765, a relative viability (ABC-1; first compound 0.03162 µM) of 0.82 and a relative viability (ABC-1; first compound 0.3162 µM) of 0.694. For the same compound, the relative viability (CAL-12T; first compound 0.03162 µM) was 0.285, the relative viability (CAL-12T; first compound 0.3162 µM) was 0.414 and the relative viability (COR-L 105; first compound 0.01 µM) was 0.53. The relative viability (COR-L 105; first compound 0.03162 µM) was 0.463, the relative viability (COR-L 105; first compound 0.3162 µM) was 0.396 and the relative viability (ChaGo-K-1; first compound 0.01 µM) was 1.12. It also gave a relative viability (ChaGo-K-1; first compound 0.03162 µM) of 0.97, a relative viability (ChaGo-K-1; first compound 0.3162 µM) of 1 and a relative viability (EMC-BAC-2; first compound 0.01 µM) of 0.527. It also gave a relative viability (EMC-BAC-2; first compound 0.03162 µM) of 0.523, a relative viability (EMC-BAC-2; first compound 0.3162 µM) of 0.52 and a relative viability (EPLC-272H; first compound 0.03162 µM) of 0.279. It also gave a relative viability (EPLC-272H; first compound 0.3162 µM) of 0.315, a relative viability (HCC-15; first compound 0.01 µM) of 0.881 and a relative viability (HCC-15; first compound 0.03162 µM) of 0.757. For the same compound, the relative viability (HCC-15; first compound 0.3162 µM) was 0.799, the relative viability (HCC-78; first compound 0.01 µM) was 0.533 and the relative viability (HCC-78; first compound 0.03162 µM) was 0.463. It also gave a relative viability (HCC-78; first compound 0.3162 µM) of 0.544, a relative viability (HOP-62; first compound 0.01 µM) of 0.507 and a relative viability (HOP-62; first compound 0.03162 µM) of 0.467. For the same compound, the relative viability (HOP-62; first compound 0.3162 µM) was 0.437, the relative viability (LXF-289; first compound 0.01 µM) was 0.739 and the relative viability (LXF-289; first compound 0.03162 µM) was 0.631. It also gave a relative viability (LXF-289; first compound 0.3162 µM) of 0.534, a relative viability (NCI-H1666; first compound 0.01 µM) of 0.673 and a relative viability (NCI-H1666; first compound 0.03162 µM) of 0.647. It also gave a relative viability (NCI-H1666; first compound 0.3162 µM) of 0.652, a relative viability (NCI-H1755; first compound 0.01 µM) of 0.472 and a relative viability (NCI-H1755; first compound 0.03162 µM) of 0.488. The relative viability (NCI-H1755; first compound 0.3162 µM) was 0.49, the relative viability (NCI-H1915; first compound 0.01 µM) was 0.571 and the relative viability (NCI-H1915; first compound 0.03162 µM) was 0.492. The relative viability (NCI-H1915; first compound 0.3162 µM) was 0.5, the relative viability (NCI-H1975; first compound 0.01 µM) was 0.534 and the relative viability (NCI-H1975; first compound 0.03162 µM) was 0.703. The relative viability (NCI-H1975; first compound 0.3162 µM) was 0.591, the relative viability (NCI-H1993; first compound 0.01 µM) was 0.559 and the relative viability (NCI-H1993; first compound 0.03162 µM) was 0.695. For the same compound, the relative viability (NCI-H1993; first compound 0.3162 µM) was 0.477, the relative viability (NCI-H2023; first compound 0.03162 µM) was 0.369 and the relative viability (NCI-H2023; first compound 0.3162 µM) was 0.264. For the same compound, the relative viability (NCI-H2085; first compound 0.01 µM) was 0.435, the relative viability (NCI-H2085; first compound 0.03162 µM) was 0.469 and the relative viability (NCI-H2085; first compound 0.3162 µM) was 0.435. The relative viability (NCI-H2126; first compound 0.01 µM) was 0.332, the relative viability (NCI-H2126; first compound 0.03162 µM) was 0.335 and the relative viability (NCI-H2126; first compound 0.3162 µM) was 0.342. The relative viability (NCI-H3122; first compound 0.01 µM) was 0.197, the relative viability (NCI-H3122; first compound 0.03162 µM) was 0.173 and the relative viability (NCI-H3122; first compound 0.3162 µM) was 0.23. For the same compound, the relative viability (NCI-H322M; first compound 0.01 µM) was 0.446, the relative viability (NCI-H322M; first compound 0.03162 µM) was 0.472 and the relative viability (NCI-H322M; first compound 0.3162 µM) was 0.485. The relative viability (NCI-H358; first compound 0.01 µM) was 0.129, the relative viability (NCI-H358; first compound 0.03162 µM) was 0.141 and the relative viability (NCI-H358; first compound 0.3162 µM) was 0.13. For the same compound, the relative viability (NCI-H441; first compound 0.01 µM) was 0.199, the relative viability (NCI-H441; first compound 0.03162 µM) was 0.198 and the relative viability (NCI-H441; first compound 0.3162 µM) was 0.202. For the same compound, the relative viability (NCI-H522; first compound 0.01 µM) was 1.2, the relative viability (NCI-H522; first compound 0.03162 µM) was 1.01 and the relative viability (NCI-H522; first compound 0.3162 µM) was 0.795. The relative viability (UMC-11; first compound 0.01 µM) was 0.341, the relative viability (UMC-11; first compound 0.03162 µM) was 0.338 and the relative viability (UMC-11; first compound 0.3162 µM) was 0.353.

CC(C)Oc1cc(Nc2nc(N[C@@H](C)c3ccc(F)cn3)ncc2Cl)n[nH]1 [AZ23] + COc1cccc2cc(-c3nc([C@H]4CC[C@H](C(=O)O)CC4)n4ncnc(N)c34)[nH]c12 [OSI-027] (partner 0.5 µM) gave a relative viability (ABC-1; first compound 0.01 µM) of 0.398, a relative viability (ABC-1; first compound 0.03162 µM) of 0.408 and a relative viability (ABC-1; first compound 0.3162 µM) of 0.469. The relative viability (CAL-12T; first compound 0.03162 µM) was 0.593, the relative viability (CAL-12T; first compound 0.3162 µM) was 0.778 and the relative viability (COR-L 105; first compound 0.01 µM) was 0.657. For the same compound, the relative viability (COR-L 105; first compound 0.03162 µM) was 0.849, the relative viability (COR-L 105; first compound 0.3162 µM) was 0.809 and the relative viability (ChaGo-K-1; first compound 0.01 µM) was 0.641. It also gave a relative viability (ChaGo-K-1; first compound 0.03162 µM) of 0.593, a relative viability (ChaGo-K-1; first compound 0.3162 µM) of 0.695 and a relative viability (EMC-BAC-2; first compound 0.01 µM) of 0.373. The relative viability (EMC-BAC-2; first compound 0.03162 µM) was 0.42, the relative viability (EMC-BAC-2; first compound 0.3162 µM) was 0.365 and the relative viability (EPLC-272H; first compound 0.01 µM) was 0.238. The relative viability (EPLC-272H; first compound 0.03162 µM) was 0.275, the relative viability (EPLC-272H; first compound 0.3162 µM) was 0.256 and the relative viability (HCC-15; first compound 0.01 µM) was 0.687. The relative viability (HCC-15; first compound 0.03162 µM) was 0.665, the relative viability (HCC-15; first compound 0.3162 µM) was 0.684 and the relative viability (HCC-78; first compound 0.01 µM) was 0.52. It also gave a relative viability (HCC-78; first compound 0.03162 µM) of 0.349, a relative viability (HCC-78; first compound 0.3162 µM) of 0.322 and a relative viability (HOP-62; first compound 0.01 µM) of 0.853. The relative viability (HOP-62; first compound 0.03162 µM) was 0.924, the relative viability (HOP-62; first compound 0.3162 µM) was 0.973 and the relative viability (LXF-289; first compound 0.01 µM) was 0.862. For the same compound, the relative viability (LXF-289; first compound 0.03162 µM) was 0.857, the relative viability (LXF-289; first compound 0.3162 µM) was 0.96 and the relative viability (NCI-H1666; first compound 0.01 µM) was 0.847. The relative viability (NCI-H1666; first compound 0.03162 µM) was 0.849, the relative viability (NCI-H1666; first compound 0.3162 µM) was 0.823 and the relative viability (NCI-H1755; first compound 0.01 µM) was 0.639. The relative viability (NCI-H1755; first compound 0.03162 µM) was 0.809, the relative viability (NCI-H1755; first compound 0.3162 µM) was 0.771 and the relative viability (NCI-H1915; first compound 0.01 µM) was 0.664. For the same compound, the relative viability (NCI-H1915; first compound 0.03162 µM) was 0.635, the relative viability (NCI-H1915; first compound 0.3162 µM) was 0.65 and the relative viability (NCI-H1975; first compound 0.01 µM) was 0.874. The relative viability (NCI-H1975; first compound 0.03162 µM) was 0.812, the relative viability (NCI-H1975; first compound 0.3162 µM) was 0.727 and the relative viability (NCI-H1993; first compound 0.01 µM) was 0.581. For the same compound, the relative viability (NCI-H1993; first compound 0.03162 µM) was 0.559, the relative viability (NCI-H1993; first compound 0.3162 µM) was 0.529 and the relative viability (NCI-H2023; first compound 0.03162 µM) was 0.373. It also gave a relative viability (NCI-H2023; first compound 0.3162 µM) of 0.437, a relative viability (NCI-H2085; first compound 0.01 µM) of 0.676 and a relative viability (NCI-H2085; first compound 0.03162 µM) of 0.76. For the same compound, the relative viability (NCI-H2085; first compound 0.3162 µM) was 0.659, the relative viability (NCI-H2126; first compound 0.01 µM) was 0.692 and the relative viability (NCI-H2126; first compound 0.03162 µM) was 0.735. For the same compound, the relative viability (NCI-H2126; first compound 0.3162 µM) was 0.756, the relative viability (NCI-H3122; first compound 0.01 µM) was 1.12 and the relative viability (NCI-H3122; first compound 0.03162 µM) was 1.12. The relative viability (NCI-H3122; first compound 0.3162 µM) was 1.12, the relative viability (NCI-H322M; first compound 0.03162 µM) was 0.594 and the relative viability (NCI-H322M; first compound 0.3162 µM) was 0.521. The relative viability (NCI-H358; first compound 0.01 µM) was 0.682, the relative viability (NCI-H358; first compound 0.03162 µM) was 0.725 and the relative viability (NCI-H358; first compound 0.3162 µM) was 0.805. For the same compound, the relative viability (NCI-H441; first compound 0.01 µM) was 0.707, the relative viability (NCI-H441; first compound 0.03162 µM) was 0.729 and the relative viability (NCI-H441; first compound 0.3162 µM) was 0.566. The relative viability (NCI-H522; first compound 0.01 µM) was 0.639, the relative viability (NCI-H522; first compound 0.03162 µM) was 0.711 and the relative viability (NCI-H522; first compound 0.3162 µM) was 0.563. It also gave a relative viability (UMC-11; first compound 0.01 µM) of 0.429, a relative viability (UMC-11; first compound 0.03162 µM) of 0.505 and a relative viability (UMC-11; first compound 0.3162 µM) of 0.494.
